Laboratory results from patent US4526989A, “1,4-Bis (substituted-amino)-5,8-dihydroxy-anthraquinones and leuco bases thereof” (priority 1979, dated 1985).
Counter-ions that a name gives are not always drawn. Like-named read-outs stand apart in the source and are kept apart here.

Test system: lymphocytic leukemia P388
Experiment: Lymphocytic leukemia P388 test (intraperitoneal administration)
Format: in vivo, DBA/2 mice
Method: The animals used are DBA/2 mice all of one sex, weighing a minimum of 17 g. and all within a 3 gram weight range. There are 5 or 6 animals per test group. The tumor transplant is by intraperitoneal injection of 0.1 ml. of dilute ascitic fluid containing 10^6 cells of lymphocytic leukemia P388. The test compounds are administered intraperitoneally on days one, 5 and 9 (relative to tumor inoculation) at various doses. The animals are weighed and survivors are recorded on a regular basis for 30 days. The median survival time and the ratio of survival time for treated (T)/control (C) animals are calculated.

[1] = 0.39 mg./kg. i.p., days 1, 5 and 9
[2] = 0.78 mg./kg. i.p., days 1, 5 and 9
[3] = 1.56 mg./kg. i.p., days 1, 5 and 9
[4] = 3.1 mg./kg. i.p., days 1, 5 and 9
[5] = 6.2 mg./kg. i.p., days 1, 5 and 9
[6] = 12.5 mg./kg. i.p., days 1, 5 and 9
[7] = Mus musculus, P388, ip, 0.39 mg./kg. i.p., days 1, 5 and 9, efficacy ≥125%, read-out: T/C × 100
[8] = Mus musculus, P388, ip, 0.78 mg./kg. i.p., days 1, 5 and 9, efficacy ≥125%, read-out: T/C × 100
[9] = Mus musculus, P388, ip, 1.56 mg./kg. i.p., days 1, 5 and 9, efficacy ≥125%, read-out: T/C × 100
[10] = Mus musculus, P388, ip, 3.1 mg./kg. i.p., days 1, 5 and 9, efficacy ≥125%, read-out: T/C × 100
[11] = Mus musculus, P388, ip, 6.2 mg./kg. i.p., days 1, 5 and 9, efficacy ≥125%, read-out: T/C × 100
[12] = Mus musculus, P388, ip, 12.5 mg./kg. i.p., days 1, 5 and 9, efficacy ≥125%, read-out: T/C × 100
[13] = 100 mg./kg. i.p., days 1, 5 and 9
[14] = 200 mg./kg. i.p., days 1, 5 and 9
[15] = Mus musculus, P388, ip, 100 mg./kg. i.p., days 1, 5 and 9, efficacy ≥125%, read-out: T/C × 100
[16] = Mus musculus, P388, ip, 200 mg./kg. i.p., days 1, 5 and 9, efficacy ≥125%, read-out: T/C × 100
[17] = 3.12 mg./kg. i.p., days 1, 5 and 9
[18] = 6.25 mg./kg. i.p., days 1, 5 and 9
[19] = 25 mg./kg. i.p., days 1, 5 and 9
[20] = 50 mg./kg. i.p., days 1, 5 and 9
[21] = Mus musculus, P388, ip, 3.12 mg./kg. i.p., days 1, 5 and 9, efficacy ≥125%, read-out: T/C × 100
[22] = Mus musculus, P388, ip, 6.25 mg./kg. i.p., days 1, 5 and 9, efficacy ≥125%, read-out: T/C × 100
[23] = Mus musculus, P388, ip, 50 mg./kg. i.p., days 1, 5 and 9, efficacy ≥125%, read-out: T/C × 100
[24] = Mus musculus, P388, ip, read-out: T/C × 100
[25] = Mus musculus, P388, ip, 25 mg./kg. i.p., days 1, 5 and 9, efficacy ≥125%, read-out: T/C × 100

Compound | Median Survival Time [2] [days] | Median Survival Time [3] [days] | Median Survival Time [4] [days] | Median Survival Time [5] [days] | Median Survival Time [6] [days] | response vs control in vivo at 0.78 mg/kg [8] [%] | response vs control in vivo at 1.56 mg/kg [9] [%] | response vs control in vivo at 3.1 mg/kg [10] [%] | response vs control in vivo at 6.2 mg/kg [11] [%] | response vs control in vivo at 12.5 mg/kg [12] [%] | Median Survival Time [13] [days] | Median Survival Time [14] [days] | response vs control in vivo at 100 mg/kg [15] [%] | response vs control in vivo at 200 mg/kg [16] [%] | Median Survival Time [18] [days] | Median Survival Time [19] [days] | Median Survival Time [20] [days] | response vs control in vivo at 6.25 mg/kg [22] [%] | response vs control in vivo at 50 mg/kg [23] [%] | response vs control in vivo at 25 mg/kg [25] [%] | other results
Cl.Cl.NCCNc1ccc(NCCN)c2c1C(=O)c1c(O)ccc(O)c1C2=O [1,4-Bis(2-aminoethylamino)-5,8-dihydroxyanthraquinone dihydrochloride] | 24.5 | 20.0 | 30.0 | 15.5 | 8.0 | 223 | 182 | 273 | 141 | 73 | – | – | – | – | – | – | – | – | – | – | Median Survival Time (0.19 mg./kg. i.p., days 1, 5 and 9): 23.0 days; Median Survival Time [1]: 25.5 days; response vs control in vivo at 0.19 mg/kg (Mus musculus, P388, ip, 0.19 mg./kg. i.p., days 1, 5 and 9, efficacy ≥125%, read-out: T/C × 100): 209%; response vs control in vivo at 0.39 mg/kg [7]: 232%
O=C1c2c(O)ccc(O)c2C(=O)c2c(NCCN3CCOCC3)ccc(NCCN3CCOCC3)c21 [1,4-Bis(2-morpholinoethylamino)-5,8-dihydroxyanthraquinone] | – | – | – | – | – | – | – | – | – | – | 12.0 | 14.0 | 126 | 147 | – | – | – | – | – | – | –
O=C1c2c(O)ccc(O)c2C(=O)c2c(NCCN3CC3)ccc(NCCN3CC3)c21 [1,4-Bis[2-(1-aziridino)ethylamino]-5,8-dihydroxyanthraquinone] | 14.0 | 17.0 | – | – | 20.5 | 140 | 170 | – | – | 205 | 28.5 | – | 285 | – | 18.5 | 20.0 | 21.5 | 185 | 215 | – | Median Survival Time [17]: 19.5 days; response vs control in vivo at 3.12 mg/kg [21]: 195%; response vs control in vivo at 25 mg/kg [24]: 200%
CC(O)CNCCNc1ccc(NCCNCC(C)O)c2c1C(=O)c1c(O)ccc(O)c1C2=O.Cl.Cl (stereo not shown) [1,4-Bis[2-(2-hydroxy-1-propylamino)ethylamino]-5,8-dihydroxyanthraquinone dihydrochloride] | 19.0 | 19.0 | 22.0 | 23.0 | 24.0 | 190 | 190 | 220 | 230 | 240 | – | – | – | – | – | 12.0 | – | – | – | 120 | Median Survival Time [1]: 17.5 days; response vs control in vivo at 0.39 mg/kg [7]: 175%
CNCCNCCNc1ccc(NCCNCCNC)c2c1C(=O)c1c(O)ccc(O)c1C2=O.Cl.Cl.Cl.Cl [1,4-Bis[2-(2-methylaminoethylamino)ethylamino]-5,8-dihydroxyanthraquinone Tetrahydrochloride] | – | 13.0 | – | – | 17.0 | – | 130 | – | – | 170 | 22.0 | – | 220 | – | 16.0 | 19.5 | 22.0 | 160 | 220 | 195 | Median Survival Time (1.12 mg./kg. i.p., days 1, 5 and 9): 13.5 days; response vs control in vivo at 1.12 mg/kg (Mus musculus, P388, ip, 1.12 mg./kg. i.p., days 1, 5 and 9, efficacy ≥125%, read-out: T/C × 100): 135%
Cl.Cl.O=C1c2c(O)ccc(O)c2C(=O)c2c(NCCNCCCO)ccc(NCCNCCCO)c21 [1,4-Bis[2-(3-hydroxy-1-propylamino)ethylamino]-5,8-dihydroxyanthraquinone dihydrochloride] | 21.5 | 22.0 | 25.0 | – | > 30.0 | 195 | – | 227 | – | > 273 | – | – | – | – | 26.0 | 8.5 | – | 236 | – | 77 | response vs control in vivo at 1.56 mg/kg [24]: 200%
O=C1c2c(O)ccc(O)c2C(=O)c2c(NCCNCCN3CCOCC3)ccc(NCCNCCN3CCOCC3)c21 [1,4-Bis[2-[2-(1-morpholino)ethylamino]ethylamino]-5,8-dihydroxyanthraquinone tetrahydrochloride] | – | – | 13.0 | 14.0 | 15.0 | – | – | 130 | 140 | 150 | 20.0 | 9.5 | – | 95 | – | 19.5 | 18.5 | – | 185 | 195 | response vs control in vivo at 100 mg/kg [24]: 200%
Cl.Cl.O=C1c2c(O)ccc(O)c2C(=O)c2c(NCCN(CCO)CCO)ccc(NCCN(CCO)CCO)c21 [1,4-Bis[2-[di(β-hydroxyethyl)amino]ethylamino]-5,8-dihydroxyanthraquinone dihydrochloride] | 14.5 | 16.0 | 19.0 | 18.5 | 18.5 | 161 | 178 | 211 | 206 | 206 | 22.0 | > 30.0 | 244 | > 333 | – | 21.5 | 20.5 | – | 228 | 239 | –
Cl.Cl.O=C1c2c(O)ccc(O)c2C(=O)c2c(NCCCNCCO)ccc(NCCCNCCO)c21 [1,4-Bis[3-(2-hydroxyethylamino)-1-propylamino]-5,8-dihydroxyanthraquinone dihydrochloride] | 15.0 | 16.0 | – | – | 22.5 | 136 | 145 | – | – | 205 | 12.5 | – | 114 | – | 19.0 | 26.5 | 32.0 | 173 | 291 | 241 | Median Survival Time [17]: 19.0 days; response vs control in vivo at 3.12 mg/kg [21]: 173%
O=C1C2=C(NCCN3CCOCC3)CCC(NCCN3CCOCC3)=C2C(=O)c2c(O)ccc(O)c21 [Leuco-1,4-bis(2-morpholinoethylamino)-5,8-dihydroxyanthraquinone] | – | – | – | – | – | – | – | – | – | – | 12.0 | 13.0 | 126 | 137 | – | 12.0 | 11.0 | – | 116 | 126 | –
